Experimental data: patent publication US9833497B2, “Human originated EGF domain proteins and use of the same” (CHENGDU SOURCEBIO LIMITED-LIABILITY COMPANY, priority 2013, dated 2017)

Legend:
Format in all cases: cell-based
[1] = test system: E. coli DH5α; test: Antibacterial activity: MIC and growth curve against E. coli DH5α in 96-well plate; conditions: minimal inhibitory concentration against E. coli DH5α; 96-well plate, 5×10^5 CFU/mL, 37° C., judged after 8 h
Summary of the method: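 Log-phase DH5α (OD600 about 0.5, 37° C, 185 rpm in LB) was pelleted, resuspended in fresh LB and seeded at 5×10^5 CFU/mL with recombinant protein at 50, 25 and 12.5 μg/mL (two-fold series), in triplicate. Plates were shaken at 175 rpm, 37° C, and OD600 was read every 30 min. MIC was the lowest concentration with no growth.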

[2] = test system: E. coli BL21; test: MIC against Gram-negative bacteria: E. coli BL21; conditions: 96-well plate, 5×10^5 CFU/mL, 37° C., 10 h
Summary of the method: (§1)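 Bacteria grown in LB at 37° C to McFarland 0.5, resuspended and seeded at 5×10^5 CFU/mL in 96-well plates. Purified human EGF-domain proteins two-fold serially diluted, triplicate wells; cultured at 37° C, shaking 175 rpm. MIC = lowest protein concentration with no growth.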

[3] = test system: Pseudomonas aeruginosa; test: MIC against Gram-negative bacteria: Pseudomonas aeruginosa; conditions: 96-well plate, 5×10^5 CFU/mL, 37° C., 10 h
Summary of the method: as §1

[4] = test system: Klebsiella pneumonia; test: MIC against Gram-negative bacteria: Klebsiella pneumonia; conditions: 96-well plate, 5×10^5 CFU/mL, 37° C., 10 h
Summary of the method: as §1

[5] = test system: Enterobacter cloacae; test: MIC against Gram-negative bacteria: Enterobacter cloacae; conditions: 96-well plate, 5×10^5 CFU/mL, 37° C., 10 h
Summary of the method: as §1

[6] = test system: Aeromonas hydrophila; test: MIC against Gram-negative bacteria: Aeromonas hydrophila; conditions: 96-well plate, 5×10^5 CFU/mL, 37° C., 10 h
Summary of the method: as §1

[7] = test system: Citrobacter diversus; test: MIC against Gram-negative bacteria: Citrobacter diversus; conditions: 96-well plate, 5×10^5 CFU/mL, 37° C., 10 h
Summary of the method: as §1

[8] = test system: Moraxella catarrhalis; test: MIC against Gram-negative bacteria: Moraxella catarrhalis; conditions: 96-well plate, 5×10^5 CFU/mL, 37° C., 10 h
Summary of the method: as §1

[9] = test system: Proteus mirabilis; test: MIC against Gram-negative bacteria: Proteus mirabilis; conditions: 96-well plate, 5×10^5 CFU/mL, 37° C., 10 h
Summary of the method: as §1

[10] = test system: Proteus vulgaris; test: MIC against Gram-negative bacteria: Proteus vulgaris; conditions: 96-well plate, 5×10^5 CFU/mL, 37° C., 10 h
Summary of the method: as §1

[11] = test system: Serratia marcescens; test: MIC against Gram-negative bacteria: Serratia marcescens; conditions: 96-well plate, 5×10^5 CFU/mL, 37° C., 10 h
Summary of the method: as §1

Row | Substance | MIC [1] | MIC against E. coli BL21 [2] | MIC against P. aeruginosa [3] | MIC against K. pneumonia [4] | MIC against E. cloacae [5] | MIC against A. hydrophila [6] | MIC against C. diversus [7] | MIC against M. catarrhalis [8] | MIC against P. mirabilis [9] | MIC against P. vulgaris [10] | MIC against S. marcescens [11]
1 | PRT483 (DCRAVYDRYSDDFCSGHGQCNCGRCDCKAGWYGKKCE; listed as Homo sapiens) | 12.5 mg/L | 25 mg/L | 50 mg/L | 25 mg/L | 12.5 mg/L | 25 mg/L | 50 mg/L | 25 mg/L | 12.5 mg/L | 25 mg/L | 50 mg/L
2 | PRT484 (RCEDLDGVVCGGHGTCSCGRCVCERGWFGKLCQ; listed as Homo sapiens) | 25 mg/L | 12.5 mg/L | 25 mg/L | 50 mg/L | 12.5 mg/L | 50 mg/L | 12.5 mg/L | 50 mg/L | 12.5 mg/L | 50 mg/L | 12.5 mg/L
3 | PRT485 (QADPCKFLACGEFAQCVKNERTEEAECRCKPGYDSQGSL; listed as Homo sapiens) | 50 mg/L | 12.5 mg/L | 50 mg/L | 25 mg/L | 12.5 mg/L | 25 mg/L | 50 mg/L | 25 mg/L | 12.5 mg/L | 25 mg/L | 50 mg/L
4 | PRT486 (EANPCKFQACNEFSECLVNPWSGEAKCRCFPGYLSVEERPCQ; listed as Homo sapiens) | 12.5 mg/L | 50 mg/L | 12.5 mg/L | 50 mg/L | 12.5 mg/L | 50 mg/L | 12.5 mg/L | 50 mg/L | 12.5 mg/L | 50 mg/L | 25 mg/L
5 | PRT487 (SLCDLQPDFCLNDGKCDIMPGHGAICRCRVGENWWYRGKHCE; listed as Homo sapiens) | 12.5 mg/L | 25 mg/L | 12.5 mg/L | 25 mg/L | 12.5 mg/L | 25 mg/L | 12.5 mg/L | 25 mg/L | 12.5 mg/L | 50 mg/L | 12.5 mg/L
6 | PRT488 (DRCQLQTRCQNGGQWDGLKCQCPSTFYGSSCE; listed as Homo sapiens) | 50 mg/L | 12.5 mg/L | 50 mg/L | 12.5 mg/L | 50 mg/L | 12.5 mg/L | 50 mg/L | 12.5 mg/L | 50 mg/L | 12.5 mg/L | 50 mg/L
7 | PRT489 (CDNGGTWEQGQCACLPGFSGDRCQLQTRCQNG; listed as Homo sapiens) | 12.5 mg/L | 12.5 mg/L | 12.5 mg/L | 25 mg/L | 12.5 mg/L | 25 mg/L | 12.5 mg/L | 25 mg/L | 50 mg/L | 25 mg/L | 12.5 mg/L
8 | PRT490 (CASAPCRNGGVCREGWNRFICDCIGTGFLGRVCE; listed as Homo sapiens) | 25 mg/L | 50 mg/L | 25 mg/L | 12.5 mg/L | 25 mg/L | 50 mg/L | 25 mg/L | 12.5 mg/L | 25 mg/L | 50 mg/L | 25 mg/L
9 | PRT491 (LDICSKNPCHNGGLCEEISQEVRGDVFPSYTCTCLKGYAGNHCE; listed as Homo sapiens) | 12.5 mg/L | 25 mg/L | 50 mg/L | 12.5 mg/L | 50 mg/L | 100 mg/L | 50 mg/L | 12.5 mg/L | 50 mg/L | 25 mg/L | 12.5 mg/L
10 | PRT492 (CICYGHASSCPWDETTKKLQCQCEHNTCGESCNRCCPGYHQQPWRPGTVSSGNTCEA; listed as Homo sapiens) | 25 mg/L | 50 mg/L | 25 mg/L | 12.5 mg/L | 25 mg/L | 50 mg/L | 25 mg/L | 12.5 mg/L | 50 mg/L | 12.5 mg/L | 50 mg/L
11 | PRT493 (CDCPHTQNTCDPETGECVCPPHTQGVKCEECEDGHWGYDAEVGCQA; listed as Homo sapiens) | 12.5 mg/L | 50 mg/L | 12.5 mg/L | 50 mg/L | 25 mg/L | 12.5 mg/L | 25 mg/L | 50 mg/L | 25 mg/L | 12.5 mg/L | 25 mg/L
12 | PRT494 (CNCSLVGSTHHRCDVVTGHCQCKSKFGGRACDQCSLGYRDFPDCVP; listed as Homo sapiens) | 50 mg/L | 25 mg/L | 12.5 mg/L | 25 mg/L | 50 mg/L | 25 mg/L | 12.5 mg/L | 25 mg/L | 50 mg/L | 25 mg/L | 12.5 mg/L
13 | PRT495 (CDCDLRGTSGDACNLEQGLCGCVEETGACPCKENVFGPQCNECREGTFALRADNPLGCSP; listed as Homo sapiens) | 25 mg/L | 50 mg/L | 25 mg/L | 12.5 mg/L | 25 mg/L | 50 mg/L | 25 mg/L | 12.5 mg/L | 25 mg/L | 12.5 mg/L | 25 mg/L
14 | PRT496 (CSCNNHSDTCDPNTGKCLNCGDNTAGDHCDVCTSGYYGKVTGSASDCAL; listed as Homo sapiens) | 12.5 mg/L | 12.5 mg/L | 50 mg/L | 12.5 mg/L | 50 mg/L | 12.5 mg/L | 50 mg/L | 12.5 mg/L | 25 mg/L | 50 mg/L | 25 mg/L
15 | PRT497 (CACPHSPPASFSPTCVLEGDHDFRCDACLLGYEGKHCERCSSSYYGNPQTPGGSCQK; listed as Homo sapiens) | 12.5 mg/L | 25 mg/L | 50 mg/L | 12.5 mg/L | 25 mg/L | 50 mg/L | 25 mg/L | 12.5 mg/L | 50 mg/L | 12.5 mg/L | 50 mg/L
16 | PRT498 (CDCNPHGSVHGDCDRTSGQCVCRLGASGLRCDECEPRHILMETDCVS; listed as Homo sapiens) | 12.5 mg/L | 50 mg/L | 12.5 mg/L | 12.5 mg/L | 12.5 mg/L | 12.5 mg/L | 25 mg/L | 12.5 mg/L | 25 mg/L | 12.5 mg/L | 25 mg/L
